From patent US20250230166A1, “OXADIAZOLE HDAC6 INHIBITORS AND USES THEREOF” (Eikonizo Therapeutics, Inc., priority 2022, published 2025)

Target: T1, Full length Human HDAC6 (Homo sapiens, UniProt Q9UBN7)
T1 construct: Full length Human HDAC6; FLAG (C); host or cells: baculovirus expression system
T1 sequence (Q9UBN7 1-1215): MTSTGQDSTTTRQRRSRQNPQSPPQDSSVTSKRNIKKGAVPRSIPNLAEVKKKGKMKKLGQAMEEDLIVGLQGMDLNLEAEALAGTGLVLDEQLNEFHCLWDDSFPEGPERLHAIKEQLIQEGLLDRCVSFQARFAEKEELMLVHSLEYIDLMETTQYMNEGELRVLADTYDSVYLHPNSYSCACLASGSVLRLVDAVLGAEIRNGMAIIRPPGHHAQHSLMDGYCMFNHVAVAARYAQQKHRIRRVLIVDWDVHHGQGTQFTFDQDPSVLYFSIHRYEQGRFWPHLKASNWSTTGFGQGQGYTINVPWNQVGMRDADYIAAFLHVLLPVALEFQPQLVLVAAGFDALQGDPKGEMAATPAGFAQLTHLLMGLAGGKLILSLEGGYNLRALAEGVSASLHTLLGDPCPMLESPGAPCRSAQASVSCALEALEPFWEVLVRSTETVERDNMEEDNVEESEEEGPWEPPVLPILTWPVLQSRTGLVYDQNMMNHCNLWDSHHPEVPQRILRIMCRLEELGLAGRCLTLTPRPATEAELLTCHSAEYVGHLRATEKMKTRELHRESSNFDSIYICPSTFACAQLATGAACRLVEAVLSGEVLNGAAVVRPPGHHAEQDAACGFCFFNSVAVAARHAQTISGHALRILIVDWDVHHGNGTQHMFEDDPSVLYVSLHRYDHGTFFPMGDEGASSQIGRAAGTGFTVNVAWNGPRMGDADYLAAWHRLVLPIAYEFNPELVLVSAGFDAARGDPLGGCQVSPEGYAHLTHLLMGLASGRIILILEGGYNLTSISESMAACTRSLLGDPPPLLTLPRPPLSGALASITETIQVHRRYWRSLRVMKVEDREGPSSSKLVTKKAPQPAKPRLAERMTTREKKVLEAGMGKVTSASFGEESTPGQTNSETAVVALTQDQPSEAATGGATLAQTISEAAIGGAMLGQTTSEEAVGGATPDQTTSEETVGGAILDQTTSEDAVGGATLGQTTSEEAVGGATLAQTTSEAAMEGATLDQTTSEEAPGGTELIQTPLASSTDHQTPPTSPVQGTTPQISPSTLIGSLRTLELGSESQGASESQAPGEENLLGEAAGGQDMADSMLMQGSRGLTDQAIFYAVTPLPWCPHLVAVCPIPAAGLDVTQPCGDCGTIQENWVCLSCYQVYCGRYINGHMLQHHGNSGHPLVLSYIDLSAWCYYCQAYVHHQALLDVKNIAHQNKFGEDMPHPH
Test: In vitro HDAC6 enzymatic activity (Caliper endpoint assay or Nanosyn fluorogenic format)
Format: biochemical
Details: 30 min pre-incubation with enzyme

Row | IC50 [nM] | SMILES
1 | 1 to 100 | FC(F)c1nnc(-c2ccc(COc3ccc4cccnc4c3)nc2)o1 [Compound 34, 2-(difluoromethyl)-5-[6-(7-quinolyloxymethyl)-3-pyridyl]-1,3,4-oxadiazole]
2 | 1 to 100 | FC(F)c1nnc(-c2ccc(COc3cccc4ncccc34)nc2)o1 [Compound 63, 2-(difluoromethyl)-5-[6-(5-quinolyloxymethyl)-3-pyridyl]-1,3,4-oxadiazole]
